# In patent US9206161B2, “Bridged bicyclic heteroaryl substituted triazoles useful as Axl inhibitors” (Rigel Pharmaceuticals, Inc., priority 2008, dated 2015):
# Biological target: T1, Axl (Homo sapiens, UniProt P30530)
# T1 construct: endogenous in cells; host or cells: HeLa cells
# T1 sequence (P30530 26-894): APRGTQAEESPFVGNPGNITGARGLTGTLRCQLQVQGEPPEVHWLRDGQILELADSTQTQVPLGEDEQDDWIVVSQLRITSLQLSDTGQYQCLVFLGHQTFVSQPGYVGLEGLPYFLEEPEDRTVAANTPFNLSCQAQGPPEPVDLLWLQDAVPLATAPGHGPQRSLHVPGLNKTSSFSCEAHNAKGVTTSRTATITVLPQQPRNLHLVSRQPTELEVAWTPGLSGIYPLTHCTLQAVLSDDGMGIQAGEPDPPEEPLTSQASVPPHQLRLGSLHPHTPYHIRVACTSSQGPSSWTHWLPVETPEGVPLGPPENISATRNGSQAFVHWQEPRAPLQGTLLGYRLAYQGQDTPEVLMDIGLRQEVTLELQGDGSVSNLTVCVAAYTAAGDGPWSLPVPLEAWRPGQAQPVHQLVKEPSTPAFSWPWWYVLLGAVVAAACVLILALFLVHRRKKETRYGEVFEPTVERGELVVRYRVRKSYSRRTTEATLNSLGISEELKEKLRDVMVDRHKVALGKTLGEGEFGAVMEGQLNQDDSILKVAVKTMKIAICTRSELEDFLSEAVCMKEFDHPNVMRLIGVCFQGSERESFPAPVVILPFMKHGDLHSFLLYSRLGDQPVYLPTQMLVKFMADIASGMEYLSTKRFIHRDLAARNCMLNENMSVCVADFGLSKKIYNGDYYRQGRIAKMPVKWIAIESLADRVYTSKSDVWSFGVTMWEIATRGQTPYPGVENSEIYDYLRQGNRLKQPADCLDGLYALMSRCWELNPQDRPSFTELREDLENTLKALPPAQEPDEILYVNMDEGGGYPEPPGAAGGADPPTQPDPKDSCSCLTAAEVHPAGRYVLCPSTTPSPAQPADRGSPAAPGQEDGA
# Assay: Phospho-Akt in-cell Western assay
# Type: cell-based
# Conditions: Hela cells, Axl antibody cross-linking stimulation, phospho-Akt readout
# Procedure: Phospho-Akt in-Cell Western Assay
# The compounds of the invention were tested in the following assay for their ability to inhibit Axl activity.
# • Cell culture plate: 96 well assay plate (Corning 3610), white, clear bottom, tissue-culture treated. • Cells: Hela cells. • Starvation medium: For Axl stimulation: 0.5% FCS (fetal calf serum) in DMEM, plus Axl/Fc (extracellular domain of AXL fused to immunoglobulin Fc region) (R&D, 154-AL) 500 ng/mL. • For EGF (epidermal growth factor) stimulation: 0.5% FCS in DMEM (Dulbecco's modified Eagles medium). • Poly-L-Lysine 0.01% solution (the working solution): 10 μg/ml, dilute In PBS (phosphate buffered saline). • Axl antibody cross-linking: • 1st: Mouse anti-Axl (R&D, MAB154). • 2nd: Biotin-SP-conjugated AffiniPure goat anti-mouse IgG (H+L) (Jackson ImmunoResearch #115-065-003). • Fixing buffer: 4% formaldehyde in PBS. • Wash buffer: 0.1% TritonX-100 in PBS. • Quenching buffer: 3% H2O2, 0.1% Azide in wash buffer, Azide and hydrogen peroxide (H2O2) are added fresh. • Blocking buffer: 5% BSA in TBST (tris buffered saline plus 0.1% Tween 20). • Primary antibody: Rabbit anti-human Phospho-Akt antibody (Cell Signaling 9271): 1×250 diluted in blocking buffer. • Secondary antibody: HRP (horse radish peroxidase)-conjugated Goat anti-Rabbit secondary, stock solution: Jackson ImmunoResearch (Goat anti-Rabbit HRP, #111-035-144) 1:1 diluted in glycerol, store at −20° C. The working solution: 1×2000 dilution of stock in blocking buffer. • Chemiluminescent working solution (Pierce, 37030): SuperSignal ELISA (enzyme linked immunosorbant assay) Pico Chemiluminescent substrate. • Crystal Violet solution: Stock: 2.5% Crystal violet in methanol, filtered and kept at ambient temperature. The working solution: dilute the stock 1:20 with PBS immediately before use. • 10% SDS: working solution: 5% SDS (sodium dodecylsulfate), diluted in PBS Methods: Day 1:
# A 96 well TC (tissue culture treated) plate was coated with 10 μg/mL poly-L-Lysine at 37° C. for 30 min, washed twice with PBS, and air-dried for 5 minutes before cells were added. Hela cells were seeded at 10,000 cells/well and the cells were starved in 100 μL starvation medium containing Axl/Fc for 24 hrs.
# The cells were pre-treated with test compounds by adding 100 μL of 2× test compound to the starvation medium on the cells. The cells were incubated at 37° C. for 1 hr before stimulation.
# The cells were stimulated by Axl-antibody cross-linking as follows: A 5×1st/2nd Axl antibody mixture was made (37.5 μg/mL 1st/100 μg/mL 2nd) in starvation medium and nutated at 4° C. with thorough mixing for 1-2 hours for clustering. The resulting mix was warmed to 37° C. 50 μL of 5× Axl 1st/2nd of antibody cluster was added to the cells and the cells were incubated at 37° C. for 5 min.
# After 5 minutes stimulation, the plate was flicked to remove medium and the plate was tapped onto paper towels. Formaldehyde (4.0% in PBS, 100 μL) was added to fix the cells and the cells were incubated at ambient temperature for 20 min without shaking.
# The cells were washed with a plate washer buffer to remove the formaldehyde solution. The plate was flicked to removed excess wash buffer and tapped onto paper towels. Quenching buffer (100 μL) was added to each well and the cells were incubated at ambient temperature for 20 minutes without shaking.
# The cells were washed with a plate washer buffer to remove the quenching buffer. Blocking buffer (100 μL) was added and the cells were incubated at ambient temperature for at least an hour with gentle shaking.
# The cells were washed with a plate washer buffer and diluted primary antibody (50 μL) was added to each well (blocking buffer was added to the negative control wells instead). The plates were incubated overnight at 4° C. with gentle shaking.
# The wash buffer was removed, diluted secondary antibody (100 μL) was added, and the cells were incubated at ambient temperature for 1 hour with gentle shaking. […]
smiles,measurement,setting,value
"Nc1nc(Nc2ccc(N3CCC(N4CCCC4)CC3)c(F)c2)nn1-c1nnc(Cl)c2c1C1CCC2CC1 [Compound 13, 1-(4-chloro-5,8-ethano-5,6,7,8-tetrahydrophthalazine-1-yl)-N^3-(4-(4-(pyrrolidin-1-yl)piperidinyl)-3-fluorophenyl)-1H-1,2,4-triazole-3,5-diamine]",IC50,"Table 5, formula (IVa)",< 1000 nM
"COc1cccc(-c2cc(-n3nc(Nc4ccc(N5CCC(N6CCCC6)CC5)c(F)c4)nc3N)nc3c2N2CCC3CC2)c1 [Compound 11, 1-(1,4-ethano-8-(3-methoxyphenyl)-1,2,3,4-tetrahydro-1,5-naphthyridin-6-yl)-N^3-(4-(4-(pyrrolidin-1-yl)piperidinyl)-3-fluorophenyl)-1H-1,2,4-triazole-3,5-diamine]",IC50,"Table 3, formula (II)",< 1000 nM
"CN(C)[C@H]1CCc2ccc(Nc3nc(N)n(-c4cc(-c5ccccc5)c5c(n4)C4CCN5CC4)n3)cc2CC1 [Compound 36, (7S)-1-(1,4-ethano-8-phenyl-1,2,3,4-tetrahydro-1,5-naphthyridin-6-yl)-N^3-(7-(dimethylamino)-6,7,8,9-tetrahydro-5H-benzo[7]annulene-2-yl)-1H-1,2,4-triazole-3,5-diamine]",IC50,"Table 4, formula (III)",> 20000 nM
"Nc1nc(Nc2cnc3c(c2)CN(C2CCCC2)CC3)nn1-c1cc(-c2ccccc2)c2c(n1)C1CCN2CC1 [Compound 6, 1-(1,4-ethano-8-phenyl-1,2,3,4-tetrahydro-1,5-naphthyridin-6-yl)-N^3-(6-(cyclopentyl)-5,6,7,8-tetrahydro-1,6-naphthyridine-3-yl)-1H-1,2,4-triazole-3,5-diamine]",IC50,"Table 2, formula (Ib)",< 1000 nM
"Nc1nc(Nc2ccc(N3CCC(N4CCCC4)CC3)c(F)c2)nn1-c1nnc(-c2ccccc2Cl)c2c1C1CCC2CC1 [Compound 15, 1-(4-(2-chlorophenyl)-5,8-ethano-5,6,7,8-tetrahydrophthalazine-1-yl)-N^3-(4-(4-(pyrrolidin-1-yl)piperidinyl)-3-fluorophenyl)-1H-1,2,4-triazole-3,5-diamine]",IC50,"Table 5, formula (IVa)",< 1000 nM
"C[C@H]1CN(c2ccc(Nc3nc(N)n(-c4nnc(-c5ccccc5)c5c4C4CCC5CC4)n3)cn2)CCN1CC1CC1 [Compound 21, (3S)-1-(4-phenyl-5,8-ethano-5,6,7,8-tetrahydrophthalazine-1-yl)-N^3-(6-(4-(cyclopropylmethyl)-3-methylpiperazin-1-yl)pyridin-3-yl)-1H-1,2,4-triazole-3,5-diamine]",IC50,"Table 7, formula (V)",1000 to 10000 nM
"Nc1nc(Nc2ccc(N3CCC(N4CCCC4)CC3)c(F)c2)n(-c2nnc(Cl)c3c2C2CCC3CC2)n1 [Compound 14, 1-(4-chloro-5,8-ethano-5,6,7,8-tetrahydrophthalazine-1-yl)-N^5-(4-(4-(pyrrolidin-1-yl)piperidinyl)-3-fluorophenyl)-1H-1,2,4-triazole-3,5-diamine]",IC50,"Table 6, formula (IVb)",1000 to 10000 nM
"Nc1nc(Nc2ccc(N3CCC(N4CCCC4)CC3)c(F)c2)nn1-c1cc(-c2cccc(C(F)(F)F)c2)c2c(n1)C1CCN2CC1 [Compound 10, 1-(1,4-ethano-8-(3-trifluoromethylphenyl)-1,2,3,4-tetrahydro-1,5-naphthyridin-6-yl)-N^3-(4-(4-(pyrrolidin-1-yl)piperidinyl)-3-fluorophenyl)-1H-1,2,4-triazole-3,5-diamine]",IC50,"Table 3, formula (II)",< 1000 nM
"Nc1nc(Nc2ccc(N3CCC(N4CCCC4)CC3)c(F)c2)nn1-c1nnc(-c2ccncc2)c2c1C1CCC2CC1 [Compound 18, 1-(4-(pyridin-4-yl)-5,8-ethano-5,6,7,8-tetrahydrophthalazine-1-yl)-N^3-(4-(4-(pyrrolidin-1-yl)piperidinyl)-3-fluorophenyl)-1H-1,2,4-triazole-3,5-diamine]",IC50,"Table 5, formula (IVa)",< 1000 nM
"Nc1nc(Nc2ccc3c(c2)CC[C@@H](NC2CCC2)CC3)nn1-c1cc(-c2ccccc2)c2c(n1)C1CCN2CC1 [Compound 38, (7S)-1-(1,4-ethano-8-phenyl-1,2,3,4-tetrahydro-1,5-naphthyridin-6-yl)-N^3-(7-(cyclobutylamino)-6,7,8,9-tetrahydro-5H-benzo[7]annulene-2-yl)-1H-1,2,4-triazole-3,5-diamine]",IC50,"Table 4, formula (III)",< 1000 nM
"Nc1nc(Nc2ccc(N3CCC(N4CCCC4)CC3)c(F)c2)nn1-c1nc(-c2ccccc2)c2c(n1)C1CCN2CC1 [Compound 43, 1-(5,8-ethano-4-phenyl-5,6,7,8-tetrahydropyrido[3,2-d]pyrimidin-2-yl)-N^3-(4-(4-(pyrrolidin-1-yl)piperidinyl)-3-fluorophenyl)-1H-1,2,4-triazole-3,5-diamine]",IC50,"Table 9, formula (VII)",< 1000 nM
"Nc1nc(Nc2cnc3c(c2)CC(NC2CCCC2)CC3)nn1-c1cc(-c2ccccc2)c2c(n1)C1CCN2CC1 (centres unmarked) [Compound 5, 1-(1,4-ethano-8-phenyl-1,2,3,4-tetrahydro-1,5-naphthyridin-6-yl)-N^3-(6-(cyclopentylamino)-5,6,7,8-tetrahydroquinoline-3-yl)-1H-1,2,4-triazole-3,5-diamine]",IC50,"Table 1, formula (Ia)",< 1000 nM
"Nc1nc(Nc2ccc(N3CCC(N4CCCC4)CC3)c(F)c2)nn1-c1nnc(-c2ccc3c(c2)OCO3)c2c1C1CCC2CC1 [Compound 17, 1-(4-(benzo[d][1,3]dioxol-5-yl)-5,8-ethano-5,6,7,8-tetrahydrophthalazine-1-yl)-N^3-(4-(4-(pyrrolidin-1-yl)piperidinyl)-3-fluorophenyl)-1H-1,2,4-triazole-3,5-diamine]",IC50,"Table 5, formula (IVa)",< 1000 nM
"Nc1nc(Nc2ccc3c(c2)CCC(N2CCCC2)CC3)nn1-c1nnc(Cl)c2c1C1CCC2CC1 (centres unmarked) [Compound 27, 1-(4-chloro-5,8-ethano-5,6,7,8-tetrahydrophthalazine-1-yl)-N^3-(7-(pyrrolidin-1-yl)-6,7,8,9-tetrahydro-5H-benzo[7]annulene-2-yl)-1H-1,2,4-triazole-3,5-diamine]",IC50,"Table 8, formula (VI)",< 1000 nM
